# From patent EP0435221A2, “New benzanthracene compound and a process for preparing the same” (HOECHST JAPAN LIMITED, priority 1989, dated 1991)
# Test system: mouse leukemia L-1210 cells
# Assay: inhibitory effect on the proliferation of mouse leukemia L-1210 cells
# Assay type: cell-based
# Conditions: L1210; 50% inhibitory concentration; proliferation of mouse leukemia L-1210 cells (1 x 10⁶ cells/ml)
# Experimental: Compound 683 of the present invention, as well as the structurally related X-14881 D, was tested for inhibitory effect on the proliferation of mouse leukemia L-1210 cells(1 x 10⁶ cells/ml). The 50% inhibitory concentration values thereof are as follows.
row,Structure (SMILES),IC50
1,COc1cccc2c1C(O)C13C=CC4=C(C(=O)CC(C)C4O)C1(O3)C2O (centres unmarked) [Compound 683],3 µg/mL
2,COc1cccc2c1C(O)C1(O)C=CC3=C(C(=O)CC(C)C3O)C1C2O (centres unmarked) [X-14881 D],> 100 µg/mL
